US10485584B2, “Supplement for cultivation of mammalian embryos” (Lekarska fakulta v Plzni, Univerzita Karlova (Faculty of …, priority 2017, dated 2019)
Marks after values point to notes of the source that are not given here.

Legend:
Assay type in all cases: cell-based
porcine embryos = assay: Embryonic development and blastocyst formation after 144 hr IVC
Description: (§1) Porcine ovaries were obtained from 6- to 8-month-old non-cycling gilts (a crossbreed of Landrace x Large White) at the local slaughterhouse (Jatky Plzen a.s., Plzen, Czech Republic) and transported to laboratory at 39° C. Cumulus-oocyte complexes (COCs) were collected from ovarian follicles with a diameter of 2-5 mm by aspiration with a 20-gauge needle and handled in HEPES-buffered Tyrode lactate medium containing 0.01% (w/v) polyvinyl alcohol (TL-HEPES-PVA). Only fully grown oocytes with evenly dense cytoplasm, surrounded by compact cumuli, were selected for IVM and washed in maturation medium. The medium used for IVM was modified tissue culture medium (mTCM) 199 (Gibco, Life Technologies, UK) supplemented with 0.1% PVA, 3.05 mM D-glucose, 0.91 mM sodium pyruvate, […], 0.5 μg·mL^−1 LH (Sigma-Aldrich, USA), 0.5 μg·mL^−1 FSH (Sigma), 10 ng·mL^−1 epidermal growth factor (EGF; Sigma), 10% porcine follicular fluid, 75 μg·mL^−1 penicillin G and 50 μg·mL^−1 streptomycin. After 22 h of culture, the COCs were cultured in TCM199 without LH and FSH for an additional 22 h. The COCs were cultured in 500 μL of the medium covered by mineral oil in a four-well Petri dish (Nunc, Denmark), at 39° C. and 5% CO2 in air (Abeydeera et al. Theriogenology 50:747-756, 1998).
(§2) After 44 h of IVM, cumulus cells were removed with 0.1% hyaluronidase in TL-HEPES-PVA and the metaphase II (MII) oocytes with extruded first polar body were selected for IVF. The oocytes were washed three-times with modified Tris-buffered medium (mTBM; Abeydeera et al. Theriogenology 50:747-756, 1998) with 0.2% bovine serum albumin (BSA; A7888; Sigma) and placed into 100 μL drops of mTBM, covered with mineral oil in a 35 mm Petri dish. The dishes were allowed to equilibrate at 38.5° C. and 5% CO2 for 30 min before spermatozoa were added for fertilization. Spermatozoa were prepared as follows: 1 mL liquid semen preserved in BTS-based extender was washed twice in phosphate buffered saline (PBS) with 0.1% PVA (PBS-PVA) at 1500 rpm for 5 min. The last wash was supplemented with MitoTracker CMTRos (400 nM; M7510, Invitrogen) for 10 min at 39° C., used to tag sperm mitochondria that associate with the paternal pronucleus inside the fertilized oocytes. Labeled spermatozoa were resuspended in mTBM ([…]) and 1 μL of this sperm suspension was added to the medium containing the oocytes to give a final sperm concentration of 2.5 or 5×10^5 spermatozoa mL^−1. Oocytes were co-incubated with spermatozoa for 5 to 6 h at 38.5° C. and 5% CO2 in air. Thereafter, oocytes were washed and transferred into 100 μL PZM3 medium (Yoshioka et al. Biol Reprod 66:112-119, 2002) containing 0.4% BSA (A6003; Sigma) for further culture for 22 h. Simultaneously, presumed zygotes were cultured in 500 μL of PZM3 medium for 144 hrs to reach blastocyst stage. PZM3 was supplemented with the object of invention, i.e. N-benzyl-3,5-dicarbethoxy-4-phenyl-1,4-dihydropyridine, diluted in DMSO. Vehicle control contained DMSO only in equal concentration (0.1%). Tested concentrations of the compound are 1.5 and 3 μM, based on preliminary experiments evaluating the range 0.3-30 μM (see Table 1).
(§3) Within the imaging of 22 h zygotes, an assessment of penetration rate, creation of paternal pronucleus/pronuclei and monospermic fertilization was performed. Embryo cleavage was assessed by microscopy at 144 h of IVC. After 144 h of IVC, embryos were fixed in 2% formaldehyde for 40 min at room temperature (RT), washed three times with PBS, permeabilized with PBS-Triton X-100 for 30 min, and stained with 2.5 μg/mL DAPI (DNA staining; Molecular Probes, Eugene, Oreg., USA) for 40 min. Embryo cleavage, blastocyst formation, and cell number per blastocyst were assessed under an Eclipse Ci fluorescence microscope (Nikon Co., Tokyo, Japan).
(§4) Data are presented as the mean±S.E.M. of at least three independent experiments. […]

[1] = test system: H3K9me2/3 and H3K9ac in pronuclear chromatin of porcine zygotes; assay: Zygote quality: methylation and acetylation of histone H3 on lysine K9 in pronuclear chromatin after IVF; conditions: related to untreated vehicle, DMSO = 1, preliminary data
Description: as §2

[2] = test system: porcine oocytes and zygotes; assay: IVF results after 22 hr IVC (penetration rate, paternal pronucleus, monospermic fertilization)
Description: as §1, §2, §3, §4

[3] = 3.0 μM, 22 hr IVC, calculated from penetrated oocytes

Compound: CCOC(=O)C1=CN(Cc2ccccc2)C=C(C(=O)OCC)C1c1ccccc1 [N-benzyl-3,5-dicarbethoxy-4-phenyl-1,4-dihydropyridine]
- Mean cell No. per blastocyst (mean ± SEM) (porcine embryos; 1.5 μM): 32.7 ± 2.5^a
- No. of blastocysts (porcine embryos; 1.5 μM): 10
- No. of cleaved oocytes (porcine embryos; 1.5 μM): 47
- blastocysts (mean % ± SEM) (porcine embryos; 1.5 μM): 14.5 ± 7.2%
- cleaved oocytes (mean % ± SEM) (porcine embryos; 1.5 μM): 70.2 ± 7.3%
- Mean cell No. per blastocyst (mean ± SEM) (porcine embryos; 3 μM): 38.4 ± 4.2^a
- No. of blastocysts (porcine embryos; 3 μM): 18
- No. of cleaved oocytes (porcine embryos; 3 μM): 44
- blastocysts (mean % ± SEM) (porcine embryos; 3 μM): 32.9 ± 8.1%
- cleaved oocytes (mean % ± SEM) (porcine embryos; 3 μM): 62.7 ± 7.1%
- efficiency compared with naturally occurring polyphenols (resveratrol) (porcine embryos; comparison with resveratrol): even more efficient than naturally occurring polyphenols
- H3K9ac ([1]; 0.3 μM): 0.61
- H3K9me2/3 ([1]; 0.3 μM): 2.72
- H3K9ac ([1]; 3.0 μM): 0.63
- H3K9me2/3 ([1]; 3.0 μM): 1.64
- H3K9ac ([1]; 30 μM): 1.36
- H3K9me2/3 ([1]; 30 μM): 0.76
- penetrated oocytes (mean % ± SEM) ([2]; 3.0 μM, 22 hr IVC): 42.8%
- No. of monospermic fertilization [2, 3]: 39
- No. of oocyte with PPN [2, 3]: 76
- monospermic fertilization (mean % ± SEM) [2, 3]: 42.4 ± 10.4%
- oocyte with PPN (mean % ± SEM) [2, 3]: 82.6 ± 6.7%
- No. of penetrated oocytes ([2]; 3.0 μM, 22 hr IVC, of 215 oocytes): 92
- polyspermic fertilization ([2]; in the presence of compound, versus DMSO vehicle): higher polyspermic fertilization

Compound: Oc1ccc(C=Cc2cc(O)cc(O)c2)cc1 [Resveratrol, reference compound]
- Mean cell No. per blastocyst (mean ± SEM) (porcine embryos; 3 μM): 39.3 ± 11.3^a
- No. of blastocysts (porcine embryos; 3 μM): 4
- No. of cleaved oocytes (porcine embryos; 3 μM): 47
- blastocysts (mean % ± SEM) (porcine embryos; 3 μM): 6.2 ± 2.8%
- cleaved oocytes (mean % ± SEM) (porcine embryos; 3 μM): 67.7 ± 10.6%
